Experimental data from patent US6737383B1, “Herbicidal oxadiazolidines” (priority 1999, dated 2004).

Experiments:
rice = assay: Test B flood test rice; type: in vivo, Oryza sativa; conditions: for Plant response rating, Rice (0 to 10 scale, 0 is no effect, 10 is complete control): Rate 62 g/ha; for Plant response rating, Rice (0 to 10 scale, 0 is no effect, 10 is complete control) / Rice plant response rating (0 to 10 scale, 0 is no effect, 10 is complete control): visual evaluation after twelve to sixteen days; for Rice plant response rating (0 to 10 scale, 0 is no effect, 10 is complete control): Rate 125 g/ha, under heading Pre-emergence
Method in brief: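 Each value is a visual injury score relative to controls, with 10 meaning complete control and 0 no effect. Evaluation took place twelve to sixteen days after the 2-leaf-stage plants were treated and kept in the greenhouse.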

crabgrass = assay: Test B pre/postemergence crabgrass; type: in vivo, Digitaria sanguinalis
Method in brief: (§1)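 Response is a visual 0-to-10 score relative to untreated plants, where 0 means no effect and 10 means complete control, taken twelve to sixteen days after application. Treatments went onto soil at planting and onto foliage of 1- to 4-leaf plants, using a surfactant-containing non-phytotoxic solvent.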

velvetleaf = assay: Test B pre/postemergence velvetleaf; type: in vivo, Abutilon theophrasti
Method in brief: as §1

corn = assay: Test B pre/postemergence corn; type: in vivo, Zea mays
Method in brief: as §1

[1] = flood test species, Pre-emergence
[2] = Rate 500 g/ha, Pre-emergence, flood test species, scale 0 to 10 (0 no effect, 10 complete control)
[3] = Postemergence, Rate 125 g/ha, scale 0 to 10, 0 is no effect, 10 is complete control
[4] = Postemergence, Rate 250 g/ha, scale 0 to 10, 0 is no effect, 10 is complete control
[5] = Preemergence, Rate 62 g/ha, scale 0 to 10 (0 no effect, 10 complete control)
[6] = Preemergence, Rate 250 g/ha, scale of 0 to 10 where 0 is no effect and 10 is complete control
[7] = Preemergence, Rate 500 g/ha, scale of 0 to 10 where 0 is no effect and 10 is complete control
[8] = Rate 62 g/ha, Postemergence, scale of 0 to 10 where 0 is no effect and 10 is complete control
[9] = Rate 500 g/ha, Postemergence, scale 0 to 10, 0 no effect, 10 complete control
[10] = Rate 250 g/ha, Pre-emergence (flood test species), scale 0 to 10, 0 is no effect, 10 is complete control
[11] = Postemergence, Rate 250 g/ha, scale 0 to 10
[12] = Postemergence, Rate 500 g/ha, scale of 0 to 10 where 0 is no effect and 10 is complete control
[13] = Preemergence, Rate 62 g/ha, scale of 0 to 10 where 0 is no effect and 10 is complete control
[14] = Preemergence, Rate 125 g/ha, scale of 0 to 10 where 0 is no effect and 10 is complete control
[15] = Preemergence, Rate 250 g/ha, scale 0 to 10, 0 is no effect, 10 is complete control
[16] = Preemergence, Rate 500 g/ha, scale 0 to 10, 0 is no effect, 10 is complete control
[17] = Rate 62 g/ha, Postemergence, scale 0 to 10 (0 no effect, 10 complete control)
[18] = Rate 125 g/ha, Postemergence, scale 0 to 10, 0 is no effect, 10 is complete control
[19] = Postemergence, Rate 31 g/ha, visual rating, scale 0 to 10 (0 no effect, 10 complete control)
[20] = Preemergence, Rate 31 g/ha, visual rating, scale 0 to 10 (0 no effect, 10 complete control)

CC(C)N(C(=O)n1oc(=O)n(N2C(C)CCCC2C)c1=O)c1ccc(F)cc1 (centres unmarked) [Compound 382]
0: Plant response rating, Rice (0 to 10 scale, 0 is no effect, 10 is complete control) (rice; [1]) | Rice plant response rating (0 to 10 scale, 0 is no effect, 10 is complete control) (rice; flood test species) | Rice plant response rating (rice; Rate 250 g/ha, Pre-emergence, flood-test species, scale 0 to 10, 0 is no effect, 10 is complete control) | Rice plant response rating (rice; [2]) | Plant response rating, Crabgrass (crabgrass; [3]) | Plant response rating, Crabgrass (crabgrass; [4]) | Crabgrass plant response rating (crabgrass; [8]) | Plant response rating, Velvetleaf (velvetleaf; [3]) | Plant response rating, Velvetleaf (velvetleaf; [4]) | Plant response rating, Velvetleaf (velvetleaf; [5]) | Velvetleaf plant response rating (0 to 10 scale) (velvetleaf; Preemergence, Rate 125 g/ha) | Velvetleaf plant response rating (velvetleaf; [6]) | Velvetleaf plant response rating (velvetleaf; [7]) | Velvetleaf plant response rating (velvetleaf; [8]) | Plant response rating, Velvetleaf (velvetleaf; [9]) | Plant response rating, Corn (corn; [3]) | Plant response rating, Corn (corn; [4]) | Plant response rating, Corn (corn; [5]) | Corn plant response rating (0 to 10 scale) (corn; Preemergence, Rate 125 g/ha) | Corn plant response rating (corn; [6]) | Corn plant response rating (corn; [8]) | Plant response rating, Corn (corn; [9])
2: Corn plant response rating (corn; [7])
1: Plant response rating, Crabgrass (crabgrass; [9])
9: Crabgrass plant response rating (crabgrass; [6])
6: Plant response rating, Crabgrass (crabgrass; [5])
7: Crabgrass plant response rating (0 to 10 scale) (crabgrass; Preemergence, Rate 125 g/ha)
10: Crabgrass plant response rating (crabgrass; [7])

CC(C)N(C(=O)n1oc(=O)n(C(C)Cl)c1=O)c1ccccc1 (centres unmarked) [Compound 438]
3: Plant response rating, Crabgrass (crabgrass; [13]) | Corn plant response rating (corn; [12])
10: Crabgrass plant response rating (crabgrass; [16])
4: Crabgrass plant response rating (crabgrass; [18])
6: Plant response rating, Crabgrass (crabgrass; [14]) | Velvetleaf plant response rating (velvetleaf; [16])
8: Crabgrass plant response rating (crabgrass; [11])
9: Crabgrass plant response rating (crabgrass; [12]) | Crabgrass plant response rating (crabgrass; [15])
0: Plant response rating, Rice (0 to 10 scale, 0 is no effect, 10 is complete control) (rice; [1]) | Rice plant response rating (0 to 10 scale, 0 is no effect, 10 is complete control) (rice; flood test species) | Rice plant response rating (rice; [10]) | Rice plant response rating (rice; [2]) | Velvetleaf plant response rating (velvetleaf; [11]) | Velvetleaf plant response rating (velvetleaf; [12]) | Plant response rating, Velvetleaf (velvetleaf; [13]) | Plant response rating, Velvetleaf (velvetleaf; [14]) | Velvetleaf plant response rating (velvetleaf; [17]) | Velvetleaf plant response rating (velvetleaf; [18]) | Corn plant response rating (corn; [11]) | Plant response rating, Corn (corn; [13]) | Plant response rating, Corn (corn; [14]) | Corn plant response rating (corn; [15]) | Corn plant response rating (corn; [16]) | Corn plant response rating (corn; [17]) | Corn plant response rating (corn; [18])
5: Velvetleaf plant response rating (velvetleaf; [15])
2: Crabgrass plant response rating (crabgrass; [17])

Cc1nc(C)c(C(C)n2c(=O)on(C(=O)N(c3ccccc3)C(C)C)c2=O)s1 (centres unmarked) [Compound 442]
8: Plant response rating, Crabgrass (crabgrass; [14]) | Crabgrass plant response rating (crabgrass; [15])
5: Crabgrass plant response rating (crabgrass; [20])
7: Plant response rating, Crabgrass (crabgrass; [13])
0: Rice plant response rating (rice; Rate 31 g/ha, Pre-emergence section (flood test species), scale 0 to 10) | Plant response rating, Rice (0 to 10 scale, 0 is no effect, 10 is complete control) (rice; [1]) | Rice plant response rating (0 to 10 scale, 0 is no effect, 10 is complete control) (rice; flood test species) | Rice plant response rating (rice; [10]) | Crabgrass plant response rating (crabgrass; [19]) | Crabgrass plant response rating (crabgrass; [11]) | Crabgrass plant response rating (crabgrass; [17]) | Crabgrass plant response rating (crabgrass; [18]) | Velvetleaf plant response rating (velvetleaf; [19]) | Velvetleaf plant response rating (velvetleaf; [11]) | Plant response rating, Velvetleaf (velvetleaf; [13]) | Plant response rating, Velvetleaf (velvetleaf; [14]) | Velvetleaf plant response rating (velvetleaf; [15]) | Velvetleaf plant response rating (velvetleaf; [17]) | Velvetleaf plant response rating (velvetleaf; [18]) | Corn plant response rating (corn; [19]) | Corn plant response rating (corn; [11]) | Corn plant response rating (corn; [20]) | Plant response rating, Corn (corn; [13]) | Plant response rating, Corn (corn; [14]) | Corn plant response rating (corn; [15]) | Corn plant response rating (corn; [17]) | Corn plant response rating (corn; [18])

CC(C)N(C(=O)n1oc(=O)n(CC2=NOCC2)c1=O)c1ccc(F)cc1 [Compound 466]
10: Crabgrass plant response rating (crabgrass; [15]) | Crabgrass plant response rating (crabgrass; [16])
0: Plant response rating, Rice (0 to 10 scale, 0 is no effect, 10 is complete control) (rice; [1]) | Rice plant response rating (0 to 10 scale, 0 is no effect, 10 is complete control) (rice; flood test species) | Rice plant response rating (rice; [10]) | Rice plant response rating (rice; [2]) | Velvetleaf plant response rating (velvetleaf; [11]) | Plant response rating, Velvetleaf (velvetleaf; [13]) | Plant response rating, Velvetleaf (velvetleaf; [14]) | Velvetleaf plant response rating (velvetleaf; [17]) | Velvetleaf plant response rating (velvetleaf; [18]) | Corn plant response rating (corn; [11]) | Plant response rating, Corn (corn; [13]) | Plant response rating, Corn (corn; [14]) | Corn plant response rating (corn; [15]) | Corn plant response rating (corn; [17]) | Corn plant response rating (corn; [18])
2: Corn plant response rating (corn; [12])
4: Velvetleaf plant response rating (velvetleaf; [15]) | Velvetleaf plant response rating (velvetleaf; [16]) | Corn plant response rating (corn; [16])
6: Plant response rating, Crabgrass (crabgrass; [13])
9: Crabgrass plant response rating (crabgrass; [11]) | Crabgrass plant response rating (crabgrass; [12]) | Plant response rating, Crabgrass (crabgrass; [14]) | Crabgrass plant response rating (crabgrass; [17]) | Crabgrass plant response rating (crabgrass; [18])
